Measurements as given in US6936628B2, “Oral administration of epothilones” (Bristol-Myers Squibb Company, priority 2002, dated 2005).
Several values for one entry are separate records, joined by “and”; a condition that tells them apart may be missing. Equal values may be shown once. Read-outs that look alike come from different tables or passages of the source.

What was measured:
[1] = Oral bioavailability in humans; details: in vivo, human patients
Text: Compound A was well absorbed orally, providing a favorable drug exposure profile that is consistant with efficacious exposure in preclinical cancer models.

[2] = Water solubility (statement); format: physicochemical
Description: For these reasons Compound A may be formulated in an entirely aqueous excipient system for parenteral administration. To determine whether differences in the dosing vehicle may affect the antitumor activity of Compound A, a direct head-to-head comparison of the antitumor efficacy of Compound A formulated in either cremophor/ethanol/water (10:10:80, v/v/v) or sodium acetate buffer (30 mM, pH 5.0) was conducted. No formulation related effect was observed.

[3] = rat, in vivo
CYP3A4 [4] = biological target: T1, CYP3A4 (Homo sapiens, UniProt P08684); assay: Inhibition of human CYP enzymes, CYP3A4
[5] = system: Pat-7 human ovarian carcinoma; details: Balb/c nu/nu, mouse, in vivo, iv
rabbit Purkinje fiber = assay: Rabbit Purkinje-fiber action potential model; format: cell-based; details: 30 μM
Description: Human embryonic kidney (HEK293) cells stably transfected with the human ether-a-go-go related gene (HERG) cDNA were utilized in the HERG assay. Rabbit Purkinje fibres were used for the Purkinje-fibre action potential assay^7.
In a non-GLP study^7, Compound A, at concentrations of 3, 10 and 30 μM, was evaluated in an in vitro rabbit Purkinje fiber model. This model was developed to determine if a compound would affect the action-potential duration of the Purkinje fiber or other action-potential parameters. […] Based on these findings, Compound A is unlikely to provoke clinically relevant electrocardiographic effects in vivo.

[6] = Liver S9 incubation, human; details: human liver S9, 20 μM
[7] = Microsomal incubation, dog; details: dog liver microsomes + NADPH, 20 μM
[8] = Stability of aqueous solution (time for 5% drug loss, t95); format: physicochemical; details: 37° C.
HCT116/VM46 cells = assay: In vitro cytotoxicity assay (MTS), HCT116/VM46; format: cell-based, human; details: Homo sapiens, HCT-116/VM46; HCT116/VM46 (MDR colon line), 72-hour incubation
[9] = Single dose pharmacokinetic study in dogs; format: in vivo, beagle dogs
Description: The vehicle used for both IV and oral dose was propylene glycol:ethanol:phosphate buffer (pH 7.4-8.0) (40:5:55). […] The VSS value after IV administration was 4.7 L/kg, which is greater than the reported total body water of 0.6 L/kg in dogs, indicating significant extravascular distribution of Compound A. The T-HALF of Compound A was 3.9 and 3.1 h after IV and oral administration, respectively.

[10] = Plasma apparent steady-state concentration after 10-h IV infusion
human CYP2C19 = human CYP2C19 (Homo sapiens, UniProt P33261); assay: biochemical
in vitro = details: human, Caco-2
CYP2D6 = CYP2D6 (Homo sapiens, UniProt P10635); assay: Inhibition of human CYP enzymes, CYP2D6
CYP3A4 [11] = biological target: T1, CYP3A4; assay: Metabolism by specific CYP enzymes (human liver microsomes with specific inhibitors); format: in vitro ADME
Description: Compound A was incubated with human liver microsomes along with compounds specific for the inhibition of individual cytochrome P450s commonly involved in drug metabolism. The inhibitors used were; furafylline (CYP1A2), sulfaphenazole (CYP2C9), tranylcypromine (CYP2C19), quinidine (CYP2D6), troleandomycin (CYP3A4), and ketoconazole (CYP3A4).

[12] = Single dose IV toxicokinetics in rats; format: in vivo; details: both sexes, rat, plasma, IV 1, 5 and 7 mg/kg, across doses and sex
Description: The single dose IV toxicokinetics of Compound A in rats were evaluated as a part of a toxicology study. Compound A, prepared in 50 mM citrate buffer (pH 5), was given intravenously (over approximately 1-2 min period) at doses of 1, 5, and 7 mg/kg to 3 rats/gender/dose. Blood samples were collected at 3, 15, and 30 minutes, and at 1, 3, 6, 12, and 24 h after dosing. Plasma concentrations of Compound A were determined using a validated LC/MS/MS assay with a standard curve range of 2-500 ng/mL. […] Systemic exposures were reasonably similar between male and female rats. […] Furthermore, there appeared to be no differences in the toxicokinetics of Compound A between male and female rats.

[13] = system: sc Pat-7 human ovarian carcinoma; assay: Minimum effective infusional dose regimen versus sc Pat-7; format: in vivo, mice; details: constant-rate IV infusion over 10 hr
in vivo = details: male, Sprague-Dawley, rat, plasma, other: intraarterial (IA), 2 mg/kg
Description: In another pharmacokinetic study, fasted male Sprague-Dawley rats, assigned to two IA groups (2 mg/kg) and one oral (8 mg/kg) group (n=3/group), were administered a single dose of Compound A. Compound A was prepared for IA administration in two separate vehicles: vehicle 1, cremophor:ethanol:water (10:10:80), and vehicle 2, ethanol:phosphate buffer, 0.05 M, pH 7.4 (6:94). The vehicle for the oral administration was ethanol:phosphate buffer, 0.3 M, pH 8 (18:82). Samples were collected at 10, 15, 30, and 45 min, and at 1, 2, 4, 6, 8, 10, 24, and 48 hours after dosing.

[14] = 40 mg/m2, oral, 40 mg/m^2, n=10

T1 sequence (P08684 whole entry): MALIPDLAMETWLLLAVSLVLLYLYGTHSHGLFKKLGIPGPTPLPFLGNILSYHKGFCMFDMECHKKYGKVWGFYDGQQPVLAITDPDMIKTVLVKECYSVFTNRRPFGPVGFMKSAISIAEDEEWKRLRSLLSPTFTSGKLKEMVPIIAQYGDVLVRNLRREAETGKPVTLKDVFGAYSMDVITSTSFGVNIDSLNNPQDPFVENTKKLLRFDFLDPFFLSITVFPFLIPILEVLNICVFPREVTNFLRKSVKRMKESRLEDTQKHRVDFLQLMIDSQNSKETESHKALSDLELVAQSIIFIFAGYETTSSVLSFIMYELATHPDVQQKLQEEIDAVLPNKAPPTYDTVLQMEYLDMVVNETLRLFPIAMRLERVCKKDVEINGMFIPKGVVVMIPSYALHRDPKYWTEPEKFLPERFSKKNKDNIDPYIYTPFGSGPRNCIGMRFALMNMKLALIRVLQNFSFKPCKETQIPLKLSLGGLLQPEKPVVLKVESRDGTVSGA
Sequence of human CYP2C19 (P33261 whole entry): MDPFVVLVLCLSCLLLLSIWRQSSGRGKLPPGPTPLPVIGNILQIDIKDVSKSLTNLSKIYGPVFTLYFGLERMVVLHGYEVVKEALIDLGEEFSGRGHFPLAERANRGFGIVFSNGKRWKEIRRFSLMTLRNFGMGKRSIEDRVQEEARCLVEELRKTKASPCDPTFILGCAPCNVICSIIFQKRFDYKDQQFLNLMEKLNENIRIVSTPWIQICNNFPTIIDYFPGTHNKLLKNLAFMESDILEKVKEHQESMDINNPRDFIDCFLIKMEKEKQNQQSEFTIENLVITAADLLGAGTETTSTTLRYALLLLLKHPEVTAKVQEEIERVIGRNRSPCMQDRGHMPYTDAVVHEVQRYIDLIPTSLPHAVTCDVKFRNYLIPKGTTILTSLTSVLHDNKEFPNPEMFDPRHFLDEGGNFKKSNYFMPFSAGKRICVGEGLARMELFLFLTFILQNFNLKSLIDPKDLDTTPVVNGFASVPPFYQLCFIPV
Sequence of CYP2D6 (P10635 whole entry): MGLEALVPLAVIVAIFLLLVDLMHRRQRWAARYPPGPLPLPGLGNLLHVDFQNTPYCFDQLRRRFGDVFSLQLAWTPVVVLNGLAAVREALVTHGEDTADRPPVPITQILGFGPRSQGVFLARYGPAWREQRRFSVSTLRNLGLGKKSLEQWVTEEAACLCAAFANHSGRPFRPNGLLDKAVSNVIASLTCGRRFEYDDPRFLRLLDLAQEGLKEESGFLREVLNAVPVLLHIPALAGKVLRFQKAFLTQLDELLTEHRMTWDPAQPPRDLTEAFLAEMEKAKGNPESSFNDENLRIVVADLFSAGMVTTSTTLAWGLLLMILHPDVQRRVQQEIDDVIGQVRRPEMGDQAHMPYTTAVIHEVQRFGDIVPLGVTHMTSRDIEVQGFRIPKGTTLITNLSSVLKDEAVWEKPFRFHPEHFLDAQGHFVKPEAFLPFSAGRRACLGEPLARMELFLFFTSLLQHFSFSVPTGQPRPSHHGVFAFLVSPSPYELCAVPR

SMILES: C/C(=C\c1csc(CN)n1)[C@@H]1C[C@@H]2O[C@]2(C)CCC[C@H](C)[C@H](O)[C@@H](C)C(=O)C(C)(C)[C@@H](O)CC(=O)O1 (relative stereo) [Compound A, [1S-[1R*,3R*(E),7R*,10S*,11R*,12R*,16S*]]-3-[2-[2-(aminomethyl)-4-thiazolyl]-1-methylethenyl]-7,11-dihydroxy-8,8,10,12,16-pentamethyl-4,17-dioxabicyclo[14.1.0]heptadecane-5,9-dione]
- AUC [1, 14]: 631 ng·h/mL
- Cmax [1, 14]: 177 ng/mL
- half-life ([1]; 40 mg/m2, oral, 40 mg/m^2, n=10, read-out: Half-Life (SD) (converted)): 29.8 h
- Tmax ([1]; 40 mg/m2, oral, 40 mg/m^2, n=10, read-out: Tmax, median (minimum, maximum)): 1 h
- bioavailability ([1]; oral vs IV, 40 mg/m^2, n = 9, read-out: Bioavailability (SD)): 27%
- water solubility [2]: highly water-soluble
- drug related material in bile [3]: No drug related material was detected
- percent of the dose recovered in the urine as parent ([3]; iv, 2 mg/kg): approximately 18%
- percent of the dose recovered in the urine as parent ([3]; po, 8 mg/kg): ~2.4%
- IC50 (CYP3A4 [4]): 7100 nM
- OD (optimal dose or maximum tolerated dose) [5]: 8 mg/kg
- decrease of Purkinje fiber APD90 (rabbit Purkinje fiber): less than 10%
- rate of oxidative metabolism [6]: 0.06
- rate of oxidative metabolism [7]: 0.07
- time for 5% drug loss (t95) ([8]; pH 2.5): < 0.2 h
- time for 5% drug loss (t95) ([8]; pH 7): approximately 14 h
- increase in systemic exposure with cremophor vehicle (vehicle 2 compared to vehicle 1): about 3.4 fold
- increase in systemic exposure with cremophor vehicle (vehicle 2 compared to vehicle 3): ~5.3 fold
- IC50 (HCT116/VM46 cells): 11.9 nM
- CLT ([9]; IV 0.5 mg/kg): about 25.7 mL/min/kg
- T-HALF ([9]; IV 0.5 mg/kg): 3.9 h
- Vd ([9]; male, beagle, dog, plasma, IV 0.5 mg/kg, read-out: VSS): 4.7 L/kg
- bioavailability ([9]; male, beagle, dog, plasma, oral 1 mg/kg vs IV 0.5 mg/kg, read-out: mean absolute oral bioavailability): 40%
- T-HALF ([9]; oral 1 mg/kg): 3.1 h
- apparent steady-state concentrations ([10]; doses of 2 and 4 mg/kg, 10-h IV infusion, mouse plasma): 18-31 ng/mL and 35-60 nM
- MEC ([10]; estimated from plasma Css, 10-hr IV infusion, Pat-7 model): 35 to 60 nM
- IC50 (human CYP2C19): 2400 nM
- Papp at 200 μM (in vitro): 6 ×10⁻⁶ cm/s
- IC50 (CYP2D6): > 70000 nM
- effect of CYP3A4 inhibitors (troleandomycin, ketoconazole) on biotransformation (CYP3A4 [11]): completely inhibited
- AUC [12]: 159 to 1940 ng·h/mL
- Cmax [12]: 183 to 3910 ng/mL
- Tumor growth delay equivalent to LCK ([13]; 2 mg/kg): 0.1
- Tumor growth delay equivalent to LCK ([13]; 4 mg/kg): 0.7
- Tumor growth delay equivalent to LCK ([13]; 8 mg/kg): 1.1
- Tumor growth delay equivalent to LCK ([13]; 16 mg/kg): 1.7
- AUC (in vivo): 2890 ng·h/mL
- AUC (in vivo; pH 7.4): 717 ng·h/mL
